The values that follow come from PMC8151276, “An Integrated Approach toward NanoBRET Tracers for Analysis of GPCR Ligand Engagement” (Molecules, 2021).

In one test the target is T1, GALR3 (Homo sapiens, UniProt O60755).
T1 construct: purchased Promega (in-house HiBiT-GPCR construct library, NanoBRET)
T1 sequence (O60755 1-368): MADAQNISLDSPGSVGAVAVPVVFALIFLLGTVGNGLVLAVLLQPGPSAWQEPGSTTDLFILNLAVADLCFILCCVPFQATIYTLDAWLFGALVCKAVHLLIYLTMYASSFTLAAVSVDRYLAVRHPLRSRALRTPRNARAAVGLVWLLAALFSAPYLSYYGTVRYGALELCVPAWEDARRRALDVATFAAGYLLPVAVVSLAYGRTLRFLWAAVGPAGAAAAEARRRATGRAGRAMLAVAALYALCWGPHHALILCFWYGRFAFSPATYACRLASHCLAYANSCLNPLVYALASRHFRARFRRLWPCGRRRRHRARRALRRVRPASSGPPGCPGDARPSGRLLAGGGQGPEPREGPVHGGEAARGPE
The experiment in a line: NanoBRET screen HiBiT-GALR3 in HEK293. The test is classed as binding. How it is done: (§1) Each tracer candidate was screened across the entire library of HiBiT-GPCR constructs using NanoBRET as the detection modality. As depicted in Figure 4A, the specificity of interactions was evaluated through decrease in BRET due to competitive displacement of a bound tracer by excess parental compound. Each tracer was analyzed for binding to each HiBiT-GPCR fusion in the absence and in the presence of competing parental compound. Briefly, HEK293 cells were transfected with HiBiT-GPCR constructs diluted into promoterless DNA to reduce expression and maximize translocation to the cell surface. Each tracer candidate was then screened at concentrations of 1 μM and 0.1 μM across cells expressing these fusions. Cells were treated for 1.5 h with tracer either alone or in the presence of 20 μM competing parental compound (i.e., control). BRET was measured upon addition of purified LgBiT and subsequent complementation with HiBiT genetically fused to a GPCR. The specificity of interactions was assessed through a decrease in BRET signal due to competitive displacement of the bound tracer. To further gauge the robustness of these interactions, the fold response over the control (i.e., BRETtracer/BRETcontrol) was calculated. We chose a 1.5-fold response, which translates to ≥7-fold signal over noise as the minimal threshold required to score an interaction as positive. […]. Below we highlight the screening results obtained for our exemplary fluorescent tracers based on Clozapine, Amitriptyline and AZD1283.
(§2) HiBiT-GPCR DNA constructs were diluted in 10 mM Tris pH 8 to a final concentration of 0.01 μg/μL, arrayed in 96-well plates and stored at −20 °C. For transfection, HEK293 cells were suspended in Opti-MEM (without phenol red) supplemented with 2% fetal bovine serum (Seradigm) and 100 units/mL penicillin–streptomycin (Gibco) at a final concentration of 220,000 cells/mL and dispensed into white 96-well plates at 90 μL/well. Subsequent transfections and screens were carried using an Agilent Bravo Automated Liquid Handling Platform. First, the 96-well HiBiT DNA arrays were diluted 25-fold in Opti-MEM (without serum or phenol red) to a final concentration of 0.0004 μg/μL and 20 μL of the diluted DNAs were transferred into new 96-well plates. Next, promoterless carrier DNA (1 μg/μL) was diluted 25-fold (0.04 μg/μL) and then dispensed into the diluted arrays at 20 μL/well. Following brief mixing, Viafect transfection reagent (Promega) diluted 16-fold into Opti-MEM was dispensed into the plates at 40 μL/well. After mixing by pipetting, plates were incubated for 10 min on the pipetting station deck. The DNA-transfection reagent complexes were then added to plates containing cells. To facilitate the screen, 10 μL of DNA-transfection reagent complexes were added in duplicates to the top 4 and bottom 4 rows, resulting in two identical 48-well arrays per plate. Plates with transfected cells were incubated for 18–20 h at 37 °C/5% CO2. A screen of each tracer across the entire library using two different concentrations requires duplicate plates of transfected cells. Depending on the number of tracers being screened, transfections can be scaled up using the same ratios. The next day, for each tracer, four 20× screening solutions in tracer dilution buffer (Promega) were prepared: two duplicates at final concentration of 20 μM and two duplicates at a final concentration of 2 μM. A competing unmodified compound was added to one of each duplicate at a final concentration of 400 μM. The four resulting solutions were diluted 4-fold in Opti-MEM without serum or phenol red to generate 5× solutions (5 µM and 0.5 µM tracer +/− 100 μM competing compound). To screen the library, a BioTek MultiFlo FX liquid dispenser was used to dispense 22.5 µL of tracer solution to the top 4 rows and 22.5 µL tracer + competing compound solution to the 4 bottom rows. Plates were briefly mixed on an orbital shaker and incubated for 1.5 h at room temperature. […]
In general terms: BRET reads energy transfer from a luciferase to a nearby fluorophore.

The next test addresses T2, ACKR3 (Homo sapiens, UniProt P25106).
T2 construct: purchased Promega (in-house HiBiT-GPCR construct library, NanoBRET)
As to the kind of experiment: NanoBRET screen HiBiT-ACKR3 in HEK293. The class given is binding. How it is done:
as §1, §2

Setting [1] is: tracer at 0.1μM, listed as amitriptyline-b-2-NB590.
Where [2] appears, read: tracer at 1μM, listed as amitriptyline-b-2-NB590.

T2 sequence (P25106 whole entry): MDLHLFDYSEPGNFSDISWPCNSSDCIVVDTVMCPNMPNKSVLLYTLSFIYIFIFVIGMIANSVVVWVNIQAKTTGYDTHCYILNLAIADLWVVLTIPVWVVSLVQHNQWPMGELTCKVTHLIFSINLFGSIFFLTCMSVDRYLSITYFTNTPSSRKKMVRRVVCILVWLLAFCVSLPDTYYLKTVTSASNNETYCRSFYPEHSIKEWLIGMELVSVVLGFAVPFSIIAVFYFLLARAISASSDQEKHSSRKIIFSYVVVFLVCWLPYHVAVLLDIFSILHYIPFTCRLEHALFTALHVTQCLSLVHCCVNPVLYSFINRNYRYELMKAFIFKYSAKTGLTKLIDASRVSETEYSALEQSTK

In the case of `Cc1cc2c(s1)Nc1ccccc1N=C2N1CCN(CCCNC(=O)CCOCCOCCOCCOCCNC(=O)CCc2ccc3n2[B-](F)(F)[N+]2=C(c4ccc[nH]4)C=CC2=C3)CC1` [Olanzapine-a-2-NB590], the “NanoBRET Fold Response” value at GALR3 (GALR3, tracer 0.1μM) is reported as 1.12; at GALR3 (GALR3, tracer 1μM), 0.87; at ACKR3 (ACKR3, tracer 0.1μM) it was 0.94; at ACKR3 (ACKR3, tracer 1μM), 0.83.

`N#CN=C(NCCCOc1cccc(CN2CCCCC2)c1)NCCNC(=O)CCOCCOCCOCCOCCNC(=O)CCc1ccc2n1[B-](F)(F)[N+]1=C(c3ccc[nH]3)C=CC1=C2` [Aminopotentidine-2-NB590]: the “NanoBRET Fold Response” value is 1.09 at GALR3 (GALR3, tracer 0.1μM); 1.01 at GALR3 (GALR3, tracer 1μM); 0.99 on ACKR3 (ACKR3, tracer 0.1μM); 1.08 on ACKR3 (ACKR3, tracer 1μM).

Take `Cc1nc2n(c(=O)c1CCN1CCC(c3noc4cc(F)ccc34)CC1)CCCC2OC(=O)NCCOCCOCCOCCOCCNC(=O)CCc1ccc2n1[B-](F)(F)[N+]1=C(c3ccc[nH]3)C=CC1=C2` (stereo not shown) [Risperidone-2-NB590]: the “NanoBRET Fold Response” value was 0.90 on GALR3 (GALR3, tracer 0.1μM); 0.94 at GALR3 (GALR3, tracer 1μM); 1.07 on ACKR3 (ACKR3, tracer 0.1μM); 1.36 on ACKR3 (ACKR3, tracer 1μM).

Turning to `CN(C)CCC=C1c2ccccc2CCc2ccc(C(=O)NCCNC(=O)CCOCCOCCOCCOCCNC(=O)CCc3ccc4n3[B-](F)(F)[N+]3=C(c5ccc[nH]5)C=CC3=C4)cc21` [Amitriptyline-b-2-NB590], the “NanoBRET Fold Response” value at GALR3 (setting [1]) worked out at 1.46; on GALR3 (setting [2]) it was 0.95; at ACKR3 (setting [1]) it was 1.17; on ACKR3 (setting [2]), 1.07.
